This is an account of results in paper PMC5910032 (ACS synthetic biology, 2018).

What all share (type): binding
Experiment [1] has as its system FITC-E2 scFv VH W118G. The experiment in a line: SPR inhibition in solution assay.
Another experiment deals with FITC-E2 scFv (wild-type). In words: fluorescein fluorescence quenching, titration of purified scFv.
Experiment [2] relates to FITC-E2 scFv VH W118G. The experiment in a line: dose-dependent rescue of fluorescein quenching.

SMILES strings stand for the structures. pEC50, pIC50: −log10 of the molar value.

By pIC50 is commonly meant the IC50 on a negative log10 scale, so that one unit is a factor of ten. A word on the pEC50: it is the EC50 on a negative log10 scale, so that one unit is a factor of ten. A lower pEC50 goes with a high EC50. For `O=C1OC2(c3ccc(O)cc3Oc3cc(O)ccc32)c2ccccc21` [fluorescein], in the experiment on FITC-E2 scFv VH W118G [1], the pIC50 is 6.53. In the experiment with FITC-E2 scFv (wild-type), this compound showed a pEC50 of 7.57 to 7.64. Compound `c1ccc2[nH]ccc2c1` [indole] showed a pEC50 with FITC-E2 scFv VH W118G [2] of 3.66.
